# In ChEMBL document CHEMBL4402557, “Nidufexor (LMB763), a Novel FXR Modulator for the Treatment of Nonalcoholic Steatohepatitis” (J Med Chem, 2020):
# Calls of active or inactive are those of the source. The calls are words filed in the database; no cut-off is given here.
# Experiments:
# [1] = Volume of distribution at steady state in mouse at 3 mg/kg, iv; type: ADME, organism-based; conditions: in vivo, read-out: Vdss
# [2] = Oral bioavailability in Wistar rat at 100 mg/kg in presence of TRIS salt; type: ADME, organism-based; conditions: in vivo
# Bile acid receptor [3] = molecular target: T1, Bile acid receptor (Homo sapiens, UniProt Q96RI1); assay: Agonist activity at FXR transfected in human HEK293T cells o-expressing pGL3/hBSEP/luc incubated for 24 hrs by Steady-Glo reagent based luciferase reporter gene assay; type: cell-based
# T1 sequence (Q96RI1 whole entry): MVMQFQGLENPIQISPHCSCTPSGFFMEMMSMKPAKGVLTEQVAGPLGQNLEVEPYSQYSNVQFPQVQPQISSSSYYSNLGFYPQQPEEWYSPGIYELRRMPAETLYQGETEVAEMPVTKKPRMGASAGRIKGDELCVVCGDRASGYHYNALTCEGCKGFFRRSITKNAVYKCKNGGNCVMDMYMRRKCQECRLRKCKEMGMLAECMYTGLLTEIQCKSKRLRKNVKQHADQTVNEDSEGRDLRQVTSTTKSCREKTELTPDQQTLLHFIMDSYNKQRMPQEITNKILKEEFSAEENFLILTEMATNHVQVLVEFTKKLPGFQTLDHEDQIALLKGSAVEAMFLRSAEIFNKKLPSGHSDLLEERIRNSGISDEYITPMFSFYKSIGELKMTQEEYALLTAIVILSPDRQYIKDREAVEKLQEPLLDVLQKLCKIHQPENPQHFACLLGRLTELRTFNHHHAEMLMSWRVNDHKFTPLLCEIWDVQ
# [4] = molecular target: T2, Oxysterols receptor LXR-alpha (Homo sapiens, UniProt Q13133); assay: Agonist activity at GAL4-fused LXR LBD (unknown origin) expressed in HEK293T cells incubated for 24 by BrightGlo reagent based assay; type: cell-based
# T2 sequence (Q13133 whole entry): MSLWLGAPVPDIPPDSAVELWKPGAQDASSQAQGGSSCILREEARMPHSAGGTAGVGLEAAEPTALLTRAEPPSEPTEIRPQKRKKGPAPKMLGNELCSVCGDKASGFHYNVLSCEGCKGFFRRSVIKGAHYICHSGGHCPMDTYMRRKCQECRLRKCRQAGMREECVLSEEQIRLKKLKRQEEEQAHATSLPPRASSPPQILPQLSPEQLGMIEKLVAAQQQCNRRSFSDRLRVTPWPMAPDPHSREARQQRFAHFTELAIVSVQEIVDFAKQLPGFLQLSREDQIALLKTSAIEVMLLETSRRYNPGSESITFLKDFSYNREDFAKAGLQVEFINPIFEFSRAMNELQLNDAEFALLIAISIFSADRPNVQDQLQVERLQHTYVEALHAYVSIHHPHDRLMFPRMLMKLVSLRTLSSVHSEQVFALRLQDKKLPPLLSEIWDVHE
# Mus musculus [5] = assay: Anti Steato-hepatitic activity in STZ/HFD induced oral dosed C57BL/6J mouse STAM model assessed as reduction in macrovesicular fat deposition administered via oral gavage once daily for 3 weeks and measured on 9 week by H and E staining based assay; type: functional, organism-based
# Rattus norvegicus = assay: In-vivo agonist activity at FXR in orally dosed Han Wistar rat assessed as upregulation of FGF15 mRNA level in ileum administered via oral gavage once daily for 14 days measured post last dose by qRT-PCR analysis; type: functional, organism-based
# Bile acid receptor [6] = molecular target: T1, Bile acid receptor; assay: Agonist activity at GST-tagged human FXR-LBD (193 to 472 residues) using biotinylated SRC-1 peptide as substrate incubated for 1 hrs by HTRF assay
# Estrogen receptor = molecular target: T3, Estrogen receptor (Homo sapiens, UniProt P03372); assay: Agonist activity at GAL4-fused ERalpha (unknown origin) expressed in HEK293T cells incubated for 24 by BrightGlo reagent based assay; type: cell-based
# T3 sequence (P03372 whole entry): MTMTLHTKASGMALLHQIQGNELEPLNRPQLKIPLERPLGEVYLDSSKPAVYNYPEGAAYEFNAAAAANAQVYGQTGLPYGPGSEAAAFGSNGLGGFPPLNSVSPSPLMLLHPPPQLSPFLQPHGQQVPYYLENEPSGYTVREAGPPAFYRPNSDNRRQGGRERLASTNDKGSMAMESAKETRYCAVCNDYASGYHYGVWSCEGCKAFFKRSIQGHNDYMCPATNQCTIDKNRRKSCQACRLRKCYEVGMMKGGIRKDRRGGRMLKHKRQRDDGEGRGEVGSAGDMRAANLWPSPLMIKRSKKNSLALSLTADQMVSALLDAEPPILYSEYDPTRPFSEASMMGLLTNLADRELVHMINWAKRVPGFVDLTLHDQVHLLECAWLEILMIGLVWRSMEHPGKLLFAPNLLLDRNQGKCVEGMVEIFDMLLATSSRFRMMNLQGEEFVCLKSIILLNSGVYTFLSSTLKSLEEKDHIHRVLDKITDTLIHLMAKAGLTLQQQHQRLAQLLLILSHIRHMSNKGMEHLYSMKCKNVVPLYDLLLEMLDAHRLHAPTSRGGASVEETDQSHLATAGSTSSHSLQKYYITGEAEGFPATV
# [7] = Cmax in Wistar rat at 100 mg/kg, po; type: ADME, organism-based; parameters: dose 100 mg/kg, route oral; conditions: in vivo
# [8] = Half life in dog at 0.5 mg/kg, iv; type: ADME, organism-based, Canis lupus familiaris; conditions: in vivo
# [9] = AUC in Wistar rat liver at 10 mg/kg, po; type: ADME, organism-based
# Mus musculus [10] = species: Mus musculus; assay: Anti Steato-hepatitic activity in C57BL/6J mouse STAM model assessed as change in Aldh1l2 gene level in liver; type: functional, organism-based
# [11] = Oral bioavailability in Wistar rat at 100 mg/kg; type: ADME, organism-based; conditions: in vivo
# [12] = Half life in Wistar rat at 3 mg/kg, po; type: ADME, organism-based; conditions: in vivo
# [13] = molecular target: T4, Bile acid receptor (Rattus norvegicus) (UniProt Q62735); assay: Agonist activity at FXR in rat primary hepatocytes assessed as increase in BSEP mRNA level incubated for 24 hrs by qRT-PCR analysis relative to tropifexor; type: cell-based
# T4 sequence (whole entry): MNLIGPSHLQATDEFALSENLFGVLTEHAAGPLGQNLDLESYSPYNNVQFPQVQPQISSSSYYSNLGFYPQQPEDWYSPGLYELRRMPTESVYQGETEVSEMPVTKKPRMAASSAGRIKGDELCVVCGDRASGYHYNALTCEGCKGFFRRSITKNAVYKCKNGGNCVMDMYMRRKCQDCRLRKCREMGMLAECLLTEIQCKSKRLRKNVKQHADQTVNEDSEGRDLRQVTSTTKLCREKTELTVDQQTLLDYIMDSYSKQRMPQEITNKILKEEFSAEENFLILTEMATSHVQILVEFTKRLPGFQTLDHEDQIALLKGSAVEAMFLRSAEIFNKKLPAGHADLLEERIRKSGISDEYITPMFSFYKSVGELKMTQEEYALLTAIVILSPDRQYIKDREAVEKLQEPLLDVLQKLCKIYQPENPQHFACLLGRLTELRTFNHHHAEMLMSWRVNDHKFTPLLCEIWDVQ
# Mus musculus [14] = species: Mus musculus; assay: Anti Steato-hepatitic activity in C57BL/6J mouse STAM model assessed as change in OSTb gene level in liver; type: functional, organism-based
# [15] = AUC in Wistar rat at 100 mg/kg, po; type: ADME, organism-based; conditions: in vivo
# [16] = Oral bioavailability in dog at 2 mg/kg; type: ADME, organism-based, Canis lupus familiaris; conditions: in vivo
# [17] = AUC in Wistar rat at 3 mg/kg, po; type: ADME, organism-based; conditions: in vivo
structure (smiles),measurement,setting,value
Cn1nc(C(=O)N(Cc2ccccc2)Cc2ccc(C(=O)O)cc2)c2c1-c1cc(Cl)ccc1OC2 [NIDUFEXOR],Vd,[1],0.9 L/kg
same,bioavailability,[2],82%
same,EC50,Bile acid receptor [3],32 nM
same,EC50,[4],> 10000 nM
same,Activity,Mus musculus [5],Dose-dependent effect
same,Activity,Rattus norvegicus,Dose-dependent effect
same,EC50,Bile acid receptor [6],7 nM
same,EC50,Estrogen receptor,> 10000 nM
same,Cmax,[7],80.9 µM
same,half-life,[8],6.8 h
same,AUC,[9],36.7 µM·h
same,Activity,Mus musculus [10],Active
same,bioavailability,[11],82%
same,half-life,[12],3.9 h
same,Activity,[13],3.7%
same,Activity,Mus musculus [14],Active
same,AUC,[15],399 µM·h
same,bioavailability,[16],80%
same,AUC,[17],9.2 µM·h
